Test results from ChEMBL document CHEMBL6121008, “New series of 3-pyridyl-1,3-thiazoles: In vitro and in vivo anti-Trypanosomatidae profile, in vitro and in silico mechanism of action approach” (Eur J Med Chem, 2025).
pIC50: −log10 of the molar value. The source made the active and inactive calls. No cut-off for these calls is given here.

Columns and labels:
[1] = Selectivity index, ratio of CC50 for mouse RAW264.7 cells to IC50 for antiparasitic activity against Leishmania infantum MHOM/MA/67/ITMAP-263 promastigote expressing Escherichia coli beta-galactosidase; type: toxicity; details: read-out: Selectivity Index
Leishmania amazonensis [2] = assay: (§1) Antiparasitic activity against Leishmania amazonensis WHOM/00 LTB 0016 promastigote expressing Escherichia coli beta-galactosidase assessed as reduction in parasitic growth using CPRG as substrate preincubated with compound for 72 hrs followed by substrate addition and measured after 10 mins by Spectrophotometric analysis; type: functional, organism-based
Trypanosoma cruzi [3] = assay: (§2) Antiparasitic activity against trypomastigote form of Trypanosoma cruzi Tulahuen expressing Escherichia coli beta-galactosidase infected in mouse L929 cells assessed as reduction in parasitic growth using CPRG as substrate pretreated with compound for 96 hrs followed by substrate addition and measured after 16 to 20 hrs by Spectrophotometric analysis; type: functional, organism-based
Leishmania infantum [4] = assay: as §1, with “infantum MHOM/MA/67/ITMAP-263” for “amazonensis WHOM/00 LTB 0016”; type: functional, organism-based
[5] = Cytotoxicity against mouse L929 cells assessed as inhibition of cell viability incubated for 96 hrs by MTT assay; type: toxicity, cell-based
RAW264.7 [6] = assay: Immunomodulatory activity in mouse RAW264.7 cells assessed as decrease in TNF production at 1 to 4 times IC50 incubated for 24 to 144 hrs by flow cytometric analysis; type: functional, cell-based; details: time 24-144 hrs
Trypanosoma cruzi [7] = assay: as §2, with “amastigote” for “trypomastigote”; type: functional, organism-based
[8] = Selectivity index, ratio of CC50 for mouse RAW264.7 cells to IC50 for antiparasitic activity against Leishmania amazonensis amastigote expressing Escherichia coli beta-galactosidase infected in mouse RAW264.7 cells; type: toxicity; details: read-out: Selectivity Index
Trypanosoma cruzi [9] = assay: Antiparasitic activity against trypomastigote form of Trypanosoma cruzi Y assessed as appearance of twisted bodies by Electron micrographic analysis; type: functional, organism-based
RAW264.7 [10] = assay: Immunomodulatory activity in mouse RAW264.7 cells assessed as decrease in IL-10 production at 1 to 4 times IC50 incubated for 24 to 144 hrs by flow cytometric analysis; type: functional, cell-based; details: time 24-144 hrs
Trypanosoma cruzi [11] = assay: Antiparasitic activity against Trypanosoma cruzi Y trypomastigotes infected in male Swiss mouse assessed as reduction in parasitemia at 100 mg/kg/day, po pre-infected with parasite followed by compound addition and measured at 1 to 5 days post-infection by microscopic analysis; type: functional, organism-based; details: time 1-5 day
Trypanosoma cruzi [12] = assay: Antitrypanosomal activity against trypomastigote form of Trypanosoma cruzi Y assessed as induction of apoptosis at 2 times IC50 by measuring early apoptosis incubated for 24 hrs by Annexin V-FITC/7-AAD staining based flow cytometric analysis relative to control; type: functional
[13] = Acute toxicity in female Swiss-Webster mouse infected with Trypanosoma cruzi Y assessed as mortality at 5 to 200 mg/kg, po measured after 48 hrs; type: organism-based; details: in vivo, dose 5-200 mg/kg
[14] = Selectivity index, ratio of CC50 for mouse RAW264.7 cells to IC50 for antiparasitic activity against Leishmania infantum amastigote expressing Escherichia coli beta-galactosidase infected in mouse RAW264.7 cells; type: toxicity; details: read-out: Selectivity Index
[15] = Acute toxicity in male Swiss-Webster mouse infected with Trypanosoma cruzi Y assessed as mortality at 5 to 200 mg/kg, po measured after 48 hrs; type: organism-based; details: in vivo, dose 5-200 mg/kg
Trypanosoma cruzi [16] = assay: Antitrypanosomal activity against trypomastigote form of Trypanosoma cruzi Y assessed as induction of apoptosis at 2 times IC50 by measuring late apoptotic cells incubated for 24 hrs by Annexin V-FITC/7-AAD staining based flow cytometric analysis relative to control; type: functional
Mitochondrial membrane = assay: Induction of mitochondrial membrane hyperpolarization in trypomastigote form of Trypanosoma cruzi Y at IC50 incubated for 24 hrs by Rhodamine 123 staining based flow cytometric analysis; type: cell membranes
Cell membrane = assay: Induction of cell membrane damage in trypomastigote form of Trypanosoma cruzi Y assessed as decrease in red fluorescence intensity incubated for 24 hrs by acridine orange staining based flow cytometric analysis; type: subcellular
Leishmania amazonensis [17] = assay: as §1, with “amastigote” for “WHOM/00 LTB 0016 promastigote”, “beta-galactosidase infected in mouse RAW264.7 cells” for “beta-galactosidase”, “24” for “72”, “2 to 6 hrs” for “10 mins”; type: functional, organism-based
Leishmania infantum [18] = assay: Antiparasitic activity against Leishmania infantum amastigote expressing Escherichia coli beta-galactosidase infected in mouse RAW264.7 cells assessed as reduction in parasitic growth using CPRG as substrate preincubated with compound for 24 hrs followed by substrate addition and measured after 2 to 6 hrs by Spectrophotometric analysis; type: functional, organism-based; details: Leishmania infantum, RAW264.7; read-out: IC50
[19] = Selectivity index, ratio of CC50 for mouse RAW264.7 cells to IC50 for antiparasitic activity against Leishmania amazonensis WHOM/00 LTB 0016 promastigote expressing Escherichia coli beta-galactosidase; type: toxicity; details: read-out: Selectivity Index
[20] = Selectivity index, ratio of CC50 for mouse L929 cells to IC50 for antiparasitic activity against trypomastigote and amastigote form of Trypanosoma cruzi Tulahuen expressing Escherichia coli beta-galactosidase infected in mouse L929 cells; type: toxicity; details: read-out: Selectivity Index
Trypanosoma cruzi [21] = assay: Antiparasitic activity against trypomastigote form of Trypanosoma cruzi Y assessed as appearance of swollen cells with cytoplasmic content leakage by Electron micrographic analysis; type: functional, organism-based
[22] = Acute toxicity in male Swiss-Webster mouse infected with Trypanosoma cruzi Y assessed as side effects at 5 to 200 mg/kg, po measured after 48 hrs; type: organism-based; details: in vivo, dose 5-200 mg/kg
[23] = Cytotoxicity against mouse RAW264.7 cells assessed as inhibition of cell viability incubated for 48 hrs by MTT assay; type: toxicity, cell-based
Trypanosoma cruzi [24] = assay: Antiparasitic activity against trypomastigote form of Trypanosoma cruzi Y assessed as appearance of ruptured cells with cytoplasmic content leakage by Electron micrographic analysis; type: functional, organism-based
Trypanosoma cruzi [25] = assay: Antitrypanosomal activity against trypomastigote form of Trypanosoma cruzi Y assessed as induction of apoptosis at 1 times IC50 by measuring early apoptosis incubated for 24 hrs by Annexin V-FITC/7-AAD staining based flow cytometric analysis relative to control; type: functional
[26] = Acute toxicity in female Swiss-Webster mouse infected with Trypanosoma cruzi Y assessed as side effects at 5 to 200 mg/kg, po measured after 48 hrs; type: organism-based; details: in vivo, dose 5-200 mg/kg
RAW264.7 [27] = assay: Immunomodulatory activity in mouse RAW264.7 cells assessed as nitric oxide formation at 1 to 4 times IC50 incubated for 72 hrs by Griess reagent based Spectrophotometric analysis; type: functional, cell-based
[28] = Toxicity in male Swiss mouse infected with Trypanosoma cruzi Y trypomastigotes assessed as mortality at 100 mg/kg/day, po pre-infected with parasite followed by compound addition and measured after 5 to 9 days relative to control; type: organism-based; details: in vivo, po, 100 mg/kg, time 5-9 day
Trypanosoma cruzi [29] = assay: Antiparasitic activity against trypomastigote form of Trypanosoma cruzi Y assessed as appearance of filamentous structures scattered across the membrane by Electron micrographic analysis; type: functional, organism-based
Trypanosoma cruzi [30] = assay: Antiparasitic activity against trypomastigote form of Trypanosoma cruzi Y assessed as presence of bubbles by Electron micrographic analysis; type: functional, organism-based
Trypanosoma cruzi [31] = assay: Antitrypanosomal activity against trypomastigote form of Trypanosoma cruzi Y assessed as induction of apoptosis at 2 times IC50 by measuring necrotic cells incubated for 24 hrs by Annexin V-FITC/7-AAD staining based flow cytometric analysis relative to control; type: functional
RAW264.7 [32] = assay: Immunomodulatory activity in mouse RAW264.7 cells assessed as increase in IL-6 production at 1 to 4 times IC50 incubated for 24 to 144 hrs by flow cytometric analysis; type: functional, cell-based; details: time 24-144 hrs

SMILES	pIC50 (Trypanosoma cruzi [3])	CC50 at 96 h [5] [µM]	Activity (RAW264.7 [6])	pIC50 (Trypanosoma cruzi [7])	Activity (RAW264.7 [10])	Activity (Trypanosoma cruzi [11])	Activity (Trypanosoma cruzi [12]) [%]	Activity [13]	selectivity ratio [14]	Activity [15]	Activity (Trypanosoma cruzi [16]) [%]	Activity (Mitochondrial membrane)	Activity (Cell membrane)	pIC50 (Leishmania infantum [18])	selectivity ratio [20]	Activity (Trypanosoma cruzi [21])	Activity [22]	CC50 at 48 h [23] [µM]	Activity (Trypanosoma cruzi [24])	Activity (Trypanosoma cruzi [25]) [%]	further results
C/C(=N\N=c1\scc(-c2ccccc2)n1C)c1cccnc1	6.52	3.5	Active	6.52	Active	inactive	61.6	Non-toxic	0.7	Non-toxic	3.04	Active	Dose-dependent-effect	5.08	11.7	Dose-dependent-effect	Non-toxic	5.5	Dose-dependent-effect	29.4	selectivity ratio [1]: 1.1; pIC50 (Leishmania amazonensis [2]; Leishmania amazonensis, WHOM/00 LTB 0016, read-out: IC50): 5.15; pIC50 (Leishmania infantum [4]; Leishmania infantum, MHOM/MA/67/ITMAP-263, read-out: IC50): 5.28; selectivity ratio [8]: 0.6; Activity (Trypanosoma cruzi [9]): Dose-dependent-effect; pIC50 (Leishmania amazonensis [17]; Leishmania amazonensis, RAW264.7, read-out: IC50): 5.03; selectivity ratio [19]: 0.8; Activity [26]: Non-toxic; Activity (RAW264.7 [27]): Active; Activity [28]: Toxic; Activity (Trypanosoma cruzi [29]): Dose-dependent-effect; Activity (Trypanosoma cruzi [30]): Dose-dependent-effect; Activity (Trypanosoma cruzi [31]): 2.36%; Activity (RAW264.7 [32]): Active
C/C(=N\Nc1nc(-c2cccc([N+](=O)[O-])c2)cs1)c1cccnc1	6.40	114	inactive	6.40	Active	inactive	7.55	Non-toxic	0.4	Non-toxic	9.39	Active	Dose-dependent-effect	4.03	284	Dose-dependent-effect	Non-toxic	35.3	Dose-dependent-effect	29.2	IC50 (Leishmania amazonensis [2]): Not_active; IC50 (Leishmania infantum [4]): Not_active; IC50 (Leishmania amazonensis [17]; raw264.7): Not_active; Activity [26]: Non-toxic; Activity (RAW264.7 [27]): Active; Activity [28]: Toxic; Activity (Trypanosoma cruzi [29]): Dose-dependent-effect; Activity (Trypanosoma cruzi [30]): Dose-dependent-effect; Activity (Trypanosoma cruzi [31]): 2.31%; Activity (RAW264.7 [32]): Active
